{"source": "patent US10975384B2", "about": "“PYL9 and uses thereof” (PURDUE RESEARCH FOUNDATION, priority 2015, dated 2021)", "key": {"SAG12-LUC expression": {"tested_on": "SAG12-LUC expression", "test": "SAG12-LUC transient expression assay in Arabidopsis protoplasts", "assay_type": "cell-based", "details": "snrk2.2/3/6 triple-mutant protoplasts, ABA treatment", "description": "Assays for transient expression in protoplasts were performed as described (18). All steps were performed at room temperature. SAG12-LUC and ORE1L-LUC were used as the senescence-responsive reporters, and ZmUBQ-GUS was used as the internal control. After transfection, protoplasts were incubated in washing and incubation solution without ABA or with 5 μM ABA under light for 16 h."}, "[1]": {"tested_on": "pRD29A::PYL9 transgenic plants", "test": "Drought resistance of pRD29A::PYL9 transgenic Arabidopsis with ABA treatment", "assay_type": "in vivo", "details": "10 μM ABA applied once after water withheld for 12 d, plants after flowering", "description": "Soil water content percentage during drought treatment in Arabidopsis was measured as described (27). We used 591-mL pots (48-7214; 04.00 SQ TL TW; Myers Industries) with 130 g (˜62 g oven dry weight) Fafard Super-Fine Germinating Mix Soil (Sungro Horticultures) per pot. After being saturated with water, the total weight of the wet soil was ˜440 g per pot. Pots were covered with plastic film to reduce water loss from soil surface. Three-week-old plants (four plants per pot) were subjected to drought stress by withholding water. Plants were sprayed with 2 mL 10 μM ABA plus 0.2% Tween-20 per pot after water was withheld for 12 d. Soil water content percentage was computed as total weight minus dry soil weight divided by water weight before drought according to the work (27). For drought treatment on rice, we measured the relative water content using the Soil Temperature/Moisture Meter L99-TWS-1 (Shanghai Fotel Precise Instrument Co., Ltd) following the work (40). Before drought treatment, the mixed vermiculite and sandy soil (Zhongfang Horticulture Co.) for rice was saturated with water, and the relative soil water content before drought was set as 100%. Rice plants at the four-leaf stage were subjected to drought by withholding water for 14 d, and the relative soil water content after the drought treatment was ˜20%."}, "Arabidopsis plants": {"tested_on": "Arabidopsis plants", "test": "Osmotic potential measurements after ABA spray", "assay_type": "in vivo", "details": "developing bud tissue, 20 μM ABA spray, 2 d", "description": "Plant samples were collected in a plastic centrifuge tube filter (without membrane; Corning Costar Spin-X) and then, quick-frozen in liquid nitrogen. After thawing, the sap was collected by centrifuging at 16,000×g for 4 min to remove insoluble material. A 10-μL volume of cell sap was measured using a vapor pressure osmometer (Model 5200; Wescor). Solute concentration was converted to osmotic potential (Ψπ) using the van't Hoff law: Ψπ=−RTc, where c is the molar solute concentration (osmolality; moles kilogram-1), R is the gas constant (0.08314 L Bar mol−1 K−1), and T is the temperature in Kelvin."}, "[2]": {"tested_on": "ORE1 and AtNAP expression", "test": "Quantitative RT-PCR of ORE1 and AtNAP in mature leaves after ABA", "assay_type": "in vivo, Arabidopsis", "details": "20 μM ABA spray", "description": "Northern blot and real-time PCR were performed as reported (18). For Northern blot analysis, the probe was labeled with the PCR-DIG Probe Synthesis Kit (Roche). RD29A-F (SEQ ID NO. 83) and PYL9-R (SEQ ID NO. 84) were used for the PCR. For real-time PCR, reactions were performed with iQ SYBR Green Supermix (BioRad). The primers used include SEQ ID NOs. 71 to 80. Quantitative RT-PCR was conducted on mature leaves of 4-wk-old Arabidopsis plants that were growing in soil and sprayed with 20 μM ABA."}}, "data": [{"smiles": "CC1=CC(=O)CC(C)(C)[C@@]1(O)/C=C/C(C)=C\\C(=O)O", "note": "[ABA, abscisic acid]", "values": [{"measurement": "SAG12-LUC expression", "setting": "SAG12-LUC expression", "result": "not enhanced"}, {"measurement": "drought resistance", "setting": "[1]", "result": "significantly increased"}, {"measurement": "osmotic potential", "setting": "Arabidopsis plants", "result": "reduced"}, {"measurement": "expression of ORE1 and AtNAP", "setting": "[2]", "result": "induced"}]}]}
